Laboratory results published in a melting point compilation (Tetko et al.; mined from patent text by program, amines drawn as free bases though some values may be those of a salt).

| melting point [°C] | Structure (SMILES) |
| --- | --- |
| 159 to 160 | CC(C)c1nc(-c2ccccc2)c(C(C)C)c(-c2ccc(F)cc2)c1C=O |
| 195 to 197 | Cc1c(C(=O)Nc2ccc(N3CCN(CCO)CC3)c(C#N)c2)cnn1-c1ccc(Cl)c(Cl)c1 |
| 153 to 155 | O=C1N(c2ccc(I)cc2)CCCC1(Cl)Cl |
| 160 to 162 | COc1cc2c(Cl)c(C#N)cnc2cc1F |
| 146 to 148 | COc1ccc([C@@H]2O[C@H]2C(=O)O[C@@H]2CCCC[C@H]2c2ccccc2)cc1 |
| 72 to 74 | C=CCC(Oc1cccc(C)c1C)C1=NCCN1 (stereo not given) |
| 197 to 198 | COc1ccc(S(=O)(=O)N2CCC(N3N=C(c4ccc(OC)c(OC)c4)CCC3=O)CC2)cc1 |
| 57 to 58 | CCN(C)c1cccc(NC(=O)COC(C)=O)c1C#N |
| 160 to 163 | ON(Cc1ccccc1)Cc1ccc(CN(O)Cc2ccccc2)cc1 |
| 128 to 130 | CCCCCCCc1cc2cn(C(CC)CC)c(=O)nc2o1 |
| 140 to 145 | CC12CCC3c4ccc(O)cc4CC(Sc4ccc(O)cc4)C3C1CCC2O (stereo not given) |
| 116 | CCCCCCCOc1c(C)cc2[nH]c(S(=O)Cc3ncc(C)c(OC)c3C)nc2c1C (stereo not given) |
| 182 to 183 | O=C(Nc1c[nH]nc1C(=O)NCCOc1ccccc1)c1ccccn1 |
| 109 to 110 | O=c1c2cnc(N3CCCCC3)nc2sn1CCc1ccccn1 |
| 179 to 180 | CCCn1c(N)c(N=Cc2ccc(OCC(=O)O)cc2)c(=O)n(CCC)c1=O |
| 183 to 184 | NC(=O)CNC(=O)c1cccc(-c2ccc3c(n2)N(Cc2ccc(Cl)cc2Cl)CC3)c1 |
| 100 to 102 | COc1cnnc(Oc2ccnc(OC(C)C(F)(F)F)c2)c1 (stereo not given) |
| 120 to 122 | CC(C)[Si](C(C)C)(C(C)C)n1cc(SC(=O)c2ccccc2)c(C(=O)c2ccccc2)c1 |
| > 250 | COC(=O)c1cccc2[nH]c(=O)c(-c3csc(-c4ccncc4)n3)cc12 |
| 123 | CS(=O)(=O)Nc1cc(C=C2c3ccccc3CCc3ccccc32)ccc1O |
| 145 to 146 | O=[N+]([O-])c1ccccc1S(=O)(=O)c1ccccc1 |
| 92 to 94 | Cc1nccc(C(=O)O)c1-c1nc(-c2ccc(Cl)cc2)cs1 |
| 83 to 84 | Cc1cc(N)ccc1N1CCOCC1 |
| 81 to 84 | OCc1cncn1-c1ccccc1 |
| 121 to 123 | CC1=CC(O)C(OC(=O)c2cccc(N)c2)C(C)(C)CC1=O (stereo not given) |

| melting point [°C] | Structure (SMILES) |
| --- | --- |
| 130 to 134 | CC1Oc2cc(CN3CCN(c4ccncc4)CC3)ccc2NC1=O (stereo not given) |
| 108 to 109 | O=C(O)C(Cl)Cc1ccccc1[N+](=O)[O-] (stereo not given) |
| 160 to 161 | NC(=O)C1(CCCNC=O)c2ccccc2-c2ccccc21 |
| 51 to 53 | Cc1ccc2c(Br)csc2c1 |
| 233 to 235 | O=C(Cc1ccc(Cl)c([N+](=O)[O-])c1)N[C@H]1C[C@H](C(=O)O)Nc2cc(Cl)cc(Cl)c21 (relative stereo) |
| 208 to 210 | Fc1ccccc1-c1nc(Cl)nc2ccc(Cl)cc12 |
| 140 to 141 | COc1ccc(-c2nnc(C)n2-c2ccccc2)cc1 |
| 120 to 122 | CN(C)CCCNc1ncc2c(n1)-c1ccccc1C(c1cccc(Br)c1)C2 (stereo not given) |
| 106 to 107 | CCC(=O)N1Cc2ccccc2C2(Cc3ccc(Cl)cc3O2)C1 (stereo not given) |
| 63 to 64 | COc1cc(OC(=O)c2ccccc2)c2ccccc2c1OC(=O)c1ccccc1 |
| 172 to 174 | Nc1cc(=O)n(CCC2=CCCCC2)c(=O)n1CCC1=CCCCC1 |
| 293 | COC1=C(c2csc(NC(=O)c3cc4ccccc4[nH]3)n2)C=CC(Cl)(OC)C1 (stereo not given) |
| 168 to 170 | COC(=O)C(Cc1ccccc1)NC(=O)C(N)(CC(=O)O)NC(=O)C(C)C (stereo not given) |
| 181 to 182 | COc1cc(OC)cc(-c2cc(=O)c3ccc(OCC4CO4)cc3o2)c1 (stereo not given) |
| 119 to 120 | Nc1c([N+](=O)[O-])cc(Br)c2c1CN(Cc1ccc(C(F)(F)F)cc1)CC2 |
| 175 to 176 | CCc1cc2ccccc2c(CNC(=O)c2cc(OC)c(OC)c(OC)c2)n1 |
| 271 to 273 | CCc1nnc2c(NC)nc3ccccc3n12 |
| 218 to 221 | COc1cc(C(=O)N(C(C)C)C2CCCCC2)ccc1Cn1cccc2nc(C)nc1-2 |
| 160 | [N-]=[N+]=NC(=O)c1cn(C2CCN(Cc3ccccc3)C2)nn1 (stereo not given) |
| 308 to 310 | Cc1cc(-c2c(F)cc3c(=O)c(Cc4c(O)cccc4O)cn(C4CC4)c3c2F)cc(C)n1 |
| 208 to 210 | CNC(=O)c1cnn2c(C(=O)N3CCNCC3)c(Cc3cccc(F)c3C)c(-c3ccccc3)c2c1 |
| 35 to 45 | CCCn1nc(C(C)C)c(C(=O)OCc2cccc(C(=O)c3ccccc3)c2)c1Cc1ccc(-c2ccccc2S(=O)(=O)NC(C)(C)C)c(F)c1 |
| 129 to 130 | COc1cccc(CC(=O)O)c1OCCCc1cc(OC(C)C)nn1Cc1ccc2ccccc2n1 |
| 258 to 260 | COc1ccc(-c2c3c(cc4ccc(OC)c(OC)c24)C(=O)NC3)cc1 |
| 154 to 155 | COc1ccc(-c2cnc(N)c(Sc3ccc(Cl)cc3)n2)cc1 |

| melting point [°C] | Structure (SMILES) |
| --- | --- |
| 62 to 63 | Cc1cccc(CC(=O)O)c1OCCCc1cn(-c2ccc(Br)cn2)nc1C(C)(C)C |
| 165 to 166 | CCCOc1ccccc1-c1nc(O)cc(C(=O)NC)n1 |
| 160 to 162 | COc1cc(COc2cccc3c2CN(C2CCC(=O)NC2=O)C3=O)ccc1OCCN1CCCC1 (stereo not given) |
| 105 to 109 | CCOC(=O)C=Cc1ccc(NC(=O)OC(C)(C)C)cc1 |
| 183 to 184 | COc1cc2c3ccc(OC)c(OC)c3c(=O)n(Cc3ccccc3)c2cc1OC |
| 93 to 96 | CCCc1ccnc(C(=O)OCC)c1N |
| 269 to 271 | Cc1ccc2c(c1)C1(COc3cc4c(cc31)OCO4)C(=O)N2 (stereo not given) |
| 73 to 75 | Cc1cccc(Sc2ccc(C(=O)O)s2)c1 |
| 106 to 109 | CC=CCn1c(C)c(C)c2cnnc(OCc3ccc(Cl)cc3F)c21 |
| 74 to 75 | O=[N+]([O-])c1cc(Cl)cc(CO)c1 |
| 193 to 194 | O=C(O)c1c(-c2ccccc2)c2ccccc2n1Cc1ccc(OCc2ccccc2)cc1 |
| 144 to 146 | c1cc2[nH]ncc2cc1OC1CCCCC1 |
| 250 to 256 | CCNC(=O)c1ccc(N2CCN(Cc3ccc4c(c3)NC(=O)C(C)O4)CC2)cc1 (stereo not given) |
| 88 | CCCCCCc1cc2c(cc1OCCCC(=O)O)C(=O)CC2 |
| 237 to 240 | NC(=O)N1C(=O)C(C(=O)c2cccs2)c2nc(Cl)c(Cl)cc21 (stereo not given) |
| 183 to 184 | CN(Cc1ccc(Cl)c(Cl)c1)C(=O)C1=C(O)C(=O)N(CCC(=O)O)C1 |
| 182 to 185 | CC(CCCCCCC(=O)O)C1CCC2C3CCC4CC(O)CCC4(C)C3CC(O)C12C (stereo not given) |
| 118 to 120 | CC(C)(CCc1ccc(OCCO)cc1)NCC(O)c1ccccc1 (stereo not given) |
| 47 to 48 | CC(=O)S[C@@H](CCc1ccccc1C)C(=O)O |
| 162 to 163 | CCCCNC(=O)[C@H](C)C[C@H](O)[C@H](CC1CCCCC1)NC(=O)[C@H](Cc1cscn1)NC(=O)[C@@H](CC(=O)N1CCOCC1)Cc1ccccc1 |
| 174 to 175 | COCCOCCOc1cc(OC)c(/C=C/C(=O)c2ccc(C(=O)O)cc2)cc1-c1cccs1 |
| 310 | COc1ccc2[nH]c(=O)c(=O)n(C)c2c1 |
| 121 to 122 | COc1ccc(C=Cc2cccc(C#N)n2)cc1 |
| 148 | O=S1(=O)c2cccc3cccc(c23)N1CCN1CCN(c2noc3ccccc23)CC1 |
| 220 to 221 | O=C1Nc2ccccc2N(C(=O)CN2C(=O)CCCC2=O)C2CCC(Cc3ccccc3)C12 (stereo not given) |

| melting point [°C] | Structure (SMILES) |
| --- | --- |
| 169 to 171 | O=C(c1cc(O)c(O)c([N+](=O)[O-])c1)c1ccccc1F |
| 75 to 76 | CCc1ncnc(N[C@H]2CC[C@@H](C(C)(C)O)CC2)c1Cl |
| 201 to 203 | COc1ccc2c(=O)cc(-c3nc4ccccc4[nH]3)oc2c1 |
| 198 | COc1ccccc1CCC(=O)Nc1sc2c(c1C#N)CCN(C(=O)OC(C)(C)C)C2 |
| 80 | CNC(=S)NS(=O)(=O)c1cc(CCNC(=O)C=Cc2cccs2)ccc1OCC1CCCCO1 (stereo not given) |
| 262 | CC(=O)OC(C)c1nc2c(C(F)(F)F)cccc2c(O)c1C(=O)Nc1nccs1 (stereo not given) |
| 121 to 122 | CC(C)(C)c1cc(C(C)(C)C)n(Cc2ccc(CO)cc2)n1 |
| 119 to 120 | CON=Cc1ccc2c(c1)ncn2-c1cccc(Br)c1 |
| 128 | Cc1cccc(N2C(=S)SCC2O)n1 (stereo not given) |
| 197 to 198 | COc1ccc(-c2ccc(S(=O)(=O)CC(C)N(O)C=O)cc2)cc1 (stereo not given) |
| 95 to 96 | O=C(N[C@H](Cc1cccc(OC(F)(F)C(F)F)c1)[C@@H](O)c1ccc(Oc2ccccc2)cc1)c1cccc2c1C=CCCC2 (racemic) |
| 105 to 107 | C[C@H]1CCCC(C)(C)[C@@H]1[C@H](O)c1cccc(C#N)c1 |
| 45 to 47 | C=Cc1cnc([N+](=O)[O-])n1CC |
| 81.4 to 87.2 | Cc1ncccc1CN1CCC(=C2c3ccc(Cl)cc3CCc3cccnc32)CC1 |
| 119 to 120 | CC(=O)Oc1cc(/C=C/c2ccccc2)cc(OC(C)=O)c1OC(C)=O |
| 71 to 73 | COc1c(F)cccc1C(=O)Cl |
| 169 to 172 | O=C(NCC12CC3CC(CC(C3)C1)C2)c1cc(-c2ncccc2C(=O)O)ccc1Cl |
| 188 | Cc1ccc2c(c1)c1c(OCC#N)cccc1n2Cc1ccccc1 |
| 83 to 85 | CCCCCCCCCCCCCCC(C)(C(=O)O)C(=O)O |
| 80 to 82 | CC1(Cc2ccc(Cl)c(Cl)c2)OC(=O)N(Cc2cc(C(F)(F)F)cc(C(F)(F)F)c2)C1=O (stereo not given) |
| 334 | NS(=O)(=O)c1ccc(-c2cn(-c3nc(-c4ccc(Cl)c(Cl)c4)cc(C(F)(F)F)n3)cn2)cc1 |
| 113 to 116 | COC(=O)Cc1cnc(-c2ccccc2)n1Cc1ccc([N+](=O)[O-])cc1 |

| Structure (SMILES) | melting point [°C] |
| --- | --- |
| CS(=O)(=O)C(=[N+]=[N-])S(C)(=O)=O | 120 to 124 |
| CN1CCC23CC(=O)CCC2(O)C1Cc1cccc(O)c13 (stereo not given) | 233 to 236 |
| O=C(NCCO[N+](=O)[O-])c1ccco1 | 88 to 89 |
